# Laboratory results reported in ChEMBL document CHEMBL1201862, “PubChem BioAssay data set” (2004).
#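 Grown in 96-well plates, cells were treated for 48 hours with each compound at five concentrations. Insufficient inhibition: endpoint recorded as highest concentration tested. At the GI50, growth is halved.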 Active and inactive are the calls of the source. No stated cut-off is given here; in the data, active = GI50 up to about 1.1 µM and inactive = higher.
# Columns and labels:
# Experiment in all cases: NCI-60 cell line screen, 48 h
# [1] = system: TK-10
# [2] = system: MOLT-4
# [3] = system: SF-295
# [4] = system: SN12C
# [5] = system: M14
# [6] = system: T47D
# [7] = system: UO-31
# [8] = system: OVCAR-8
# [9] = system: OVCAR-4
# [10] = system: SNB-75
# [11] = system: NCI-H460
# [12] = system: A549
# [13] = system: HT-29
# [14] = system: HCT-116
# [15] = system: OVCAR-5
# [16] = system: CCRF-CEM
# [17] = system: SK-OV-3
# [18] = system: UACC-257
# [19] = system: SR
# [20] = system: RPMI-8226
# [21] = system: HOP-92
# [22] = system: NCI-H23
# [23] = system: SK-MEL-2
# [24] = system: MCF7
# [25] = system: NCI/ADR-RES
# [26] = system: SNB-19
# [27] = system: K562
# [28] = system: 786-0
# [29] = system: EKVX
# [30] = system: MDA-N
# [31] = system: HCC 2998
# [32] = system: SW-620
# [33] = system: NCI-H522
# [34] = system: A498
# [35] = system: ACHN
# [36] = system: DU-145
# [37] = system: COLO 205
# [38] = system: BT-549
# [39] = system: LOX IMVI
# [40] = system: SK-MEL-5
# [41] = system: SF-539
# [42] = system: HL-60
# [43] = system: RXF 393
# [44] = system: HOP-62
# [45] = system: MDA-MB-435
# [46] = system: IGROV-1
# [47] = system: CAKI-1
# [48] = system: PC-3
# [49] = system: Malme-3M
# [50] = system: NCI-H226
# [51] = system: UACC-62
# [52] = system: SK-MEL-28
# [53] = system: SF-268
# [54] = system: U-251
# [55] = system: KM12
# [56] = system: Hs-578T
# [57] = system: HCT-15
# [58] = system: OVCAR-3
compound,measurement,setting,value
O=C1c2c(Br)sc(Br)c2C(=O)C1(O)O,GI50,[1],72.3 µM (inactive)
same,GI50,[2],33.6 µM (inactive)
same,GI50,[3],> 100 µM (inactive)
same,GI50,[4],98.9 µM (inactive)
same,GI50,[5],19.2 µM (inactive)
same,GI50,[6],21.8 µM (inactive)
same,GI50,[7],34.2 µM (inactive)
same,GI50,[8],35.7 µM (inactive)
same,GI50,[9],18.3 µM (inactive)
same,GI50,[10],36.4 µM (inactive)
same,GI50,[11],> 100 µM (inactive)
same,GI50,[12],> 100 µM (inactive)
same,GI50,[13],39.3 µM (inactive)
same,GI50,[14],19.7 µM (inactive)
same,GI50,[15],23.7 µM (inactive)
same,GI50,[16],27.7 µM (inactive)
same,GI50,[17],> 100 µM (inactive)
same,GI50,[18],19.8 µM (inactive)
same,GI50,[19],24.1 µM (inactive)
same,GI50,[20],46.6 µM (inactive)
same,GI50,[21],17.9 µM (inactive)
same,GI50,[22],33.4 µM (inactive)
same,GI50,[23],29.8 µM (inactive)
same,GI50,[24],44.5 µM (inactive)
same,GI50,[25],> 100 µM (inactive)
same,GI50,[26],> 100 µM (inactive)
same,GI50,[27],27.7 µM (inactive)
same,GI50,[28],34 µM (inactive)
same,GI50,[29],53.6 µM (inactive)
same,GI50,[30],36.8 µM (inactive)
same,GI50,[31],> 100 µM (inactive)
same,GI50,[32],35.6 µM (inactive)
same,GI50,[33],18.8 µM (inactive)
same,GI50,[34],> 100 µM (inactive)
same,GI50,[35],31.8 µM (inactive)
same,GI50,[36],> 100 µM (inactive)
same,GI50,[37],23.4 µM (inactive)
same,GI50,[38],19.3 µM (inactive)
same,GI50,[39],> 100 µM (inactive)
same,GI50,[40],19.9 µM (inactive)
same,GI50,[41],20.8 µM (inactive)
same,GI50,[42],41 µM (inactive)
same,GI50,[43],19.1 µM (inactive)
same,GI50,[44],> 100 µM (inactive)
same,GI50,[45],19.4 µM (inactive)
same,GI50,[46],> 100 µM (inactive)
same,GI50,[47],18.6 µM (inactive)
same,GI50,[48],22.8 µM (inactive)
same,GI50,[49],19.3 µM (inactive)
same,GI50,[50],> 100 µM (inactive)
same,GI50,[51],76.2 µM (inactive)
same,GI50,[52],> 100 µM (inactive)
same,GI50,[53],> 100 µM (inactive)
same,GI50,[54],39.7 µM (inactive)
same,GI50,[55],> 100 µM (inactive)
same,GI50,[56],> 100 µM (inactive)
same,GI50,[57],27.1 µM
same,GI50,[58],19.4 µM (inactive)
